These results are taken from patent US8501946B2 (Glaxo Group Limited, priority 2009, dated 2013).

This assay has as its target T1, human recombinant P2X7 receptors (Homo sapiens, UniProt Q99572).
T1 construct: expressed in transfected cells
T1 sequence (Q99572 1-595): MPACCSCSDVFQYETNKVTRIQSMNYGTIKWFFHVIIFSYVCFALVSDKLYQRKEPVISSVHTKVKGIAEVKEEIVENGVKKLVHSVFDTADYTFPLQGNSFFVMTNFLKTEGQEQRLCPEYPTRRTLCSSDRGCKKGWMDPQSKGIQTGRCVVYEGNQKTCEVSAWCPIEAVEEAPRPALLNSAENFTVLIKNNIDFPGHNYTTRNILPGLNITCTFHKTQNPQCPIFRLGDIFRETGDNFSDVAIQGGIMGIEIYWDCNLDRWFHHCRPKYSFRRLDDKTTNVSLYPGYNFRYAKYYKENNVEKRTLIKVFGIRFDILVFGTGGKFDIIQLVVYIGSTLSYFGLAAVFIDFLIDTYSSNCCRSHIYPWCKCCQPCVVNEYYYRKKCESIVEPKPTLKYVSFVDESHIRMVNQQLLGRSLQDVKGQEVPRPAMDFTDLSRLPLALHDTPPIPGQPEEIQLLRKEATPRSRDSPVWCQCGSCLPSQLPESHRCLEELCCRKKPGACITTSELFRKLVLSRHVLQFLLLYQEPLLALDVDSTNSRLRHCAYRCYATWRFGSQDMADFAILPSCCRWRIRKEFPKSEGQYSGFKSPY
Put plainly: Ethidium Accumulation Assay 2 (HEK293 cells, ATP-induced ethidium uptake). In kind it is cell-based. The note with it: HEK293 cells expressing human P2X7. On the procedure: Eithidium Accumulation Assay 2
Human Embryonic Kidney (HEK) 293 cells, stably expressing human recombinant P2X7 receptors, were grown in poly-D-lysine pretreated 96 well plates for 24 hours at 37° C.
The cells were washed with assay buffer (100 μL), before addition of 25 μL of assay buffer and then 25 ul of assay buffer containing the putative P2X7 receptor antagonist compound. The cells were then incubated at room temperature (19-21° C.) for 30 min before addition of ATP solution (50 μM). […] Antagonist pIC50 values for blocking ATP responses were determined using iterative curve fitting techniques.

[1] abbreviates: sometimes mean of more than one measurement, read-out: Assay 2 (antagonist pIC50 for blocking ATP responses) (converted).

Where two headings read alike, the source gives them in different places. Some results are limits rather than exact numbers.

As for `O=C(c1ccc(F)cc1Br)N1CCn2c(nnc2-c2cnccn2)C1` [Example 147, 7-[(2-bromo-4-fluorophenyl)carbonyl]-3-(2-pyrazinyl)-5,6,7,8-tetrahydro[1,2,4]triazolo[4,3-a]pyrazine], under setting [1], the IC50 was less than 10 nM.

For `O=C(c1ccc(Cl)cc1Cl)N1CCn2c(nnc2-c2ccno2)C1` [Example 157, 7-[(2,4-dichlorophenyl)carbonyl]-3-(5-isoxazolyl)-5,6,7,8-tetrahydro[1,2,4]triazolo[4,3-a]pyrazine], under setting [1], the IC50 was less than 501 nM.

`O=C(c1ccc(Cl)c(F)c1Cl)N1CCn2c(nnc2-c2cncs2)C1` [Example 185, 7-[(2,4-Dichloro-3-fluorophenyl)carbonyl]-3-(1,3-thiazol-5-yl)-5,6,7,8-tetrahydro[1,2,4]triazolo[4,3-a]pyrazine]: the IC50 under setting [1] is less than 100 nM.

With `O=C(c1ccc(F)cc1Cl)N1CCn2c(nnc2-c2cnc(F)cn2)C1` [Example 165, 7-[(2-chloro-4-fluorophenyl)carbonyl]-3-(5-fluoro-2-pyrazinyl)-5,6,7,8-tetrahydro[1,2,4]triazolo[4,3-a]pyrazine], the IC50 under setting [1] was less than 100 nM.

With `Cc1c(C(=O)N2CCn3c(nnc3-c3nccs3)C2)ccc(F)c1Cl` [Example 201, 7-[(3-Chloro-4-fluoro-2-methylphenyl)carbonyl]-3-(1,3-thiazol-2-yl)-5,6,7,8-tetrahydro[1,2,4]triazolo[4,3-a]pyrazine], the IC50 under setting [1] was less than 10 nM.

Consider `Cc1scnc1-c1nnc2n1CCN(C(=O)c1ccc(Cl)cc1Cl)C2` [Example 206, 7-[(2,4-dichlorophenyl)carbonyl]-3-(5-methyl-1,3-thiazol-4-yl)-5,6,7,8-tetrahydro[1,2,4]triazolo[4,3-a]pyrazine], for which the IC50 under setting [1] is less than 100 nM.

In the case of `Cc1ccnc(-c2nnc3n2CCN(C(=O)c2ccc(Cl)c(F)c2Cl)C3)n1` [Example 177, 7-[(2,4-dichloro-3-fluorophenyl)carbonyl]-3-(4-methyl-2-pyrimidinyl)-5,6,7,8-tetrahydro[1,2,4]triazolo[4,3-a]pyrazine], the IC50 under setting [1] is less than 10 nM.

`O=C(c1ccc(Cl)c(F)c1Cl)N1CCn2c(nnc2-n2cccn2)C1` [Example 184, 7-[(2,4-Dichloro-3-fluorophenyl)carbonyl]-3-(1H-pyrazol-1-yl)-5,6,7,8-tetrahydro[1,2,4]triazolo[4,3-a]pyrazine]: the IC50 under setting [1] was less than 100 nM.

For `O=C(c1ccc(F)cc1Cl)N1CCn2c(nnc2-c2nccs2)C1` [Example 144, 7-[(2-chloro-4-fluorophenyl)carbonyl]-3-(1,3-thiazol-2-yl)-5,6,7,8-tetrahydro[1,2,4]triazolo[4,3-a]pyrazine], the IC50 under setting [1] is less than 100 nM.

With `Cc1c(C(=O)N2CCn3c(nnc3-c3ccc(F)cn3)C2)ccc(F)c1F` [Example 155, 7-[(3,4-difluoro-2-methylphenyl)carbonyl]-3-(5-fluoro-2-pyridinyl)-5,6,7,8-tetrahydro[1,2,4]triazolo[4,3-a]pyrazine], the IC50 under setting [1] is less than 100 nM.

For `O=C(c1cccc(C(F)(F)F)c1Cl)N1CCn2c(nnc2-c2ncns2)C1` [Example 164, 7-{[2-chloro-3-(trifluoromethyl)phenyl]carbonyl}-3-(1,2,4-thiadiazol-5-yl)-5,6,7,8-tetrahydro[1,2,4]triazolo[4,3-a]pyrazine], the IC50 under setting [1] is less than 10 nM.

On to `O=C(c1ccc(Cl)c(F)c1Cl)N1CCn2c(nnc2-c2ccccn2)C1` [Example 173, 7-[(2,4-dichloro-3-fluorophenyl)carbonyl]-3-(2-pyridinyl)-5,6,7,8-tetrahydro[1,2,4]triazolo[4,3-a]pyrazine], for which the IC50 under setting [1] was less than 10 nM.

Turning to `O=C(c1ccc(Cl)cc1Cl)N1CCn2c(nnc2-c2ncns2)C1` [Example 205, 7-[(2,4-dichlorophenyl)carbonyl]-3-(1,2,4-thiadiazol-5-yl)-5,6,7,8-tetrahydro[1,2,4]triazolo[4,3-a]pyrazine], under setting [1], the IC50 is less than 100 nM.

Regarding `Cc1c(Cl)cccc1C(=O)N1CCn2c(nnc2-c2nccs2)C1` [Example 200, 7-[(3-Chloro-2-methylphenyl)carbonyl]-3-(1,3-thiazol-2-yl)-5,6,7,8-tetrahydro[1,2,4]triazolo[4,3-a]pyrazine], under setting [1], the IC50 is less than 100 nM.

In the case of `[2H]c1ccnc(-c2nnc3n2CCN(C(=O)c2ccc(Cl)c(F)c2Cl)C3)c1` [Example 182, 7-[(2,4-Dichloro-3-fluorophenyl)carbonyl]-3-(2-pyridinyl)-5,6,7,8-tetrahydro[1,2,4]triazolo[4,3-a]pyrazine-d1], the IC50 under setting [1] is less than 10 nM.

As for `O=C(c1ccc(Cl)c(F)c1Cl)N1CCn2c(nnc2-c2cscn2)C1` [Example 149, 7-[(2,4-dichloro-3-fluorophenyl)carbonyl]-3-(1,3-thiazol-4-yl)-5,6,7,8-tetrahydro[1,2,4]triazolo[4,3-a]pyrazine], under setting [1], the IC50 is less than 10 nM.

With `Cc1ccc(C(=O)N2CCn3c(nnc3-c3cnccn3)C2)c(C(F)(F)F)c1` [Example 148, 7-{[4-methyl-2-(trifluoromethyl)phenyl]carbonyl}-3-(2-pyrazinyl)-5,6,7,8-tetrahydro[1,2,4]triazolo[4,3-a]pyrazine], the IC50 under setting [1] is less than 501 nM.

With `Cc1csc(-c2nnc3n2CCN(C(=O)c2ccc(Cl)c(F)c2Cl)C3)n1` [Example 191, 7-[(2,4-Dichloro-3-fluorophenyl)carbonyl]-3-(4-methyl-1,3-thiazol-2-yl)-5,6,7,8-tetrahydro[1,2,4]triazolo[4,3-a]pyrazine], the IC50 under setting [1] was less than 100 nM.

On to `O=C(c1ccc(Cl)cc1Cl)N1CCn2c(nnc2-c2nccs2)C1` [Example 199, 7-[(2,4-Dichlorophenyl)carbonyl]-3-(1,3-thiazol-2-yl)-5,6,7,8-tetrahydro[1,2,4]triazolo[4,3-a]pyrazine], for which, under setting [1], the IC50 was less than 100 nM.

For `Cc1c(C(=O)N2CCn3c(nnc3-c3ncns3)C2)ccc(F)c1Cl` [Example 193, 7-[(3-Chloro-4-fluoro-2-methylphenyl)carbonyl]-3-(1,2,4-thiadiazol-5-yl)-5,6,7,8-tetrahydro[1,2,4]triazolo[4,3-a]pyrazine], under setting [1], the IC50 was less than 10 nM.

Turning to `O=C(c1ccc(Cl)c(F)c1Cl)N1CCn2c(nnc2-c2cccnc2O)C1` [Example 171, 3-{7-[(2,4-dichloro-3-fluorophenyl)carbonyl]-5,6,7,8-tetrahydro[1,2,4]triazolo[4,3-a]pyrazin-3-yl}-2-pyridinol], under setting [1], the IC50 is less than 100 nM.

On to `Cc1c(F)ccc(C(=O)N2CCn3c(nnc3-c3cnccn3)C2)c1Cl` [Example 153, 7-[(2-chloro-4-fluoro-3-methylphenyl)carbonyl]-3-(2-pyrazinyl)-5,6,7,8-tetrahydro[1,2,4]triazolo[4,3-a]pyrazine], for which, under setting [1], the IC50 is less than 10 nM.

Turning to `O=C(c1cccc(Cl)c1Cl)N1CCn2c(nnc2-c2ncns2)C1` [Example 192, 7-[(2,3-Dichlorophenyl)carbonyl]-3-(1,2,4-thiadiazol-5-yl)-5,6,7,8-tetrahydro [1,2,4]triazolo[4,3-a]pyrazine], the IC50 under setting [1] was less than 10 nM.

In the case of `O=C(c1cccc(C(F)(F)F)c1Cl)N1CCn2c(nnc2-c2ncccc2O)C1` [Example 166, 2-(7-{[2-Chloro-3-(trifluoromethyl)phenyl]carbonyl}-5,6,7,8-tetrahydro[1,2,4]triazolo[4,3-a]pyrazin-3-yl)-3-pyridinol], the IC50 under setting [1] is less than 10 nM.

`Cc1c(C(=O)N2CCn3c(nnc3-c3ccc(F)cn3)C2)ccc(F)c1Cl` [Example 156, 7-[(3-chloro-4-fluoro-2-methylphenyl)carbonyl]-3-(5-fluoro-2-pyridinyl)-5,6,7,8-tetrahydro[1,2,4]triazolo[4,3-a]pyrazine]: under setting [1], the IC50 was less than 10 nM.

Turning to `Cc1nnsc1-c1nnc2n1CCN(C(=O)c1ccc(Cl)c(F)c1Cl)C2` [Example 179, 7-[(2,4-Dichloro-3-fluorophenyl)carbonyl]-3-(4-methyl-1,2,3-thiadiazol-5-yl)-5,6,7,8-tetrahydro[1,2,4]triazolo[4,3-a]pyrazine], the IC50 (read-out: Assay 2 (antagonist pIC50 for blocking ATP responses), numeric value (converted)) is 631 nM.

Consider `[2H]c1ccc(-c2nnc3n2CCN(C(=O)c2ccc(Cl)c(F)c2Cl)C3)nc1` [Example 183, 7-[(2,4-Dichloro-3-fluorophenyl)carbonyl]-3-(2-pyridinyl)-5,6,7,8-tetrahydro[1,2,4]triazolo[4,3-a]pyrazine-d1], for which the IC50 under setting [1] was less than 10 nM.

For `COc1ccnc(-c2nnc3n2CCN(C(=O)c2ccc(Cl)c(F)c2Cl)C3)c1` [Example 174, 7-[(2,4-dichloro-3-fluorophenyl)carbonyl]-3-[4-(methyloxy)-2-pyridinyl]-5,6,7,8-tetrahydro[1,2,4]triazolo[4,3-a]pyrazine], the IC50 under setting [1] was less than 10 nM.

`Cc1ccnc(-c2nnc3n2CCN(C(=O)c2ccc(Cl)c(F)c2Cl)C3)c1` [Example 172, 7-[(2,4-dichloro-3-fluorophenyl)carbonyl]-3-(4-methyl-2-pyridinyl)-5,6,7,8-tetrahydro[1,2,4]triazolo[4,3-a]pyrazine]: the IC50 under setting [1] was less than 100 nM.
